Reference: patent US20260285850A1, “SUBSTITUTED OXAZOLIDINONES AND IMIDAZOLINONES AS HERBICIDES” (FMC CORPORATION, priority 2023, published 2026)

Assays:
Type in all cases: in vivo
[1] = test system: soybean (Glycine max); test: Test A postemergence application, visual injury rating 0-100; conditions: 10 days
Outline: (§1)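 Directed preemergence spray onto seeded soil or postemergence spray onto 2-10 cm plants (loam plus sand); compound carried in surfactant-containing non-phytotoxic solvent. Injury rated by eye after 10 d greenhouse growth; 0 = no effect, 100 = complete control.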

[2] = test system: galium (catchweed bedstraw, Galium aparine); test: as above; conditions: 10 days
Outline: as §1

[3] = test system: wheat (Triticum aestivum); test: as above; conditions: 10 days
Outline: as §1

[4] = test system: barnyardgrass (Echinochloa crus-galli); test: as above; conditions: 10 days
Outline: as §1

[5] = test system: oat, wild (wild oat, Avena fatua); test: as above; conditions: 10 days
Outline: as §1

[6] = test system: ragweed (common ragweed, Ambrosia artemisiifolia); test: as above; conditions: 10 days
Outline: as §1

[7] = test system: ryegrass, Italian (italian ryegrass, Lolium multiflorum); test: as above; conditions: 10 days
Outline: as §1

[8] = test system: palmer (palmer amaranth, palmer pigweed, Amaranthus palmeri); test: as above; conditions: 10 days
Outline: as §1

[9] = test system: corn (Zea mays); test: as above; conditions: 10 days
Outline: as §1

[10] = test system: kochia (Bassia scoparia); test: as above; conditions: 10 days
Outline: as §1

[11] = test system: blackgrass (Alopecurus myosuroides); test: as above; conditions: 10 days
Outline: as §1

[12] = test system: horseweed (Erigeron canadensis); test: as above; conditions: 10 days
Outline: as §1

[13] = test system: sedge, umbrella (small-flower umbrella sedge, Cyperus difformis); test: Test B flooded paddy test, visual plant response rating 0-100; conditions: 250 g ai/ha, Flood, applied to paddy water, evaluated after 13 days
Outline: (§2)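 Plants were grown to the 2-leaf stage, then pots were flooded to 3 cm above the soil and test compounds were applied directly into the paddy water. Water depth was held there throughout; after 13 days in a greenhouse, injury was scored visually against untreated controls.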

[14] = test system: rice (Oryza sativa); test: as above; conditions: 250 g ai/ha, Flood, applied to paddy water, evaluated after 13 days
Outline: as §2

[15] = test system: barnyardgrass (Echinochloa crusgalli); test: as above; conditions: 250 g ai/ha, Flood, applied to paddy water, evaluated after 13 days
Outline: as §2

[16] = test system: ducksalad (Heteranthera limosa); test: as above; conditions: 250 g ai/ha, Flood, applied to paddy water, evaluated after 13 days
Outline: as §2

[17] = test system: soybean (Glycine max); test: Test A preemergence soil spray, visual injury rating 0-100; conditions: 10 days, 0 = no effect, 100 = complete control
Outline: as §1

[18] = test system: wheat (Triticum aestivum); test: as above; conditions: 10 days, 0 = no effect, 100 = complete control
Outline: as §1

[19] = test system: barnyardgrass (Echinochloa crus-galli); test: as above; conditions: 10 days, 0 = no effect, 100 = complete control
Outline: as §1

[20] = test system: oat, wild (wild oat, Avena fatua); test: as above; conditions: 10 days, 0 = no effect, 100 = complete control
Outline: as §1

[21] = test system: ragweed (common ragweed, Ambrosia artemisiifolia); test: as above; conditions: 10 days, 0 = no effect, 100 = complete control
Outline: as §1

[22] = test system: ryegrass, Italian (italian ryegrass, Lolium multiflorum); test: as above; conditions: 10 days, 0 = no effect, 100 = complete control
Outline: as §1

[23] = test system: palmer (palmer amaranth, palmer pigweed, Amaranthus palmeri); test: as above; conditions: 10 days, 0 = no effect, 100 = complete control
Outline: as §1

[24] = test system: corn (Zea mays); test: as above; conditions: 10 days, 0 = no effect, 100 = complete control
Outline: as §1

[25] = test system: kochia (Bassia scoparia); test: as above; conditions: 10 days, 0 = no effect, 100 = complete control
Outline: as §1

[26] = test system: blackgrass (Alopecurus myosuroides); test: as above; conditions: 10 days, 0 = no effect, 100 = complete control
Outline: as §1

[27] = 31 g ai/ha, postemergence, 0 = no effect, 100 = complete control
[28] = Postemergence, 125 g ai/ha, 0 is no effect, 100 is complete control

COC(=O)C1=CCC(NC(=O)C2(C)CN(c3cc(Cl)cc(Cl)c3)C(=O)O2)C1 (stereo not drawn) [Compound 58]
Soybean plant response rating (0-100) [1, 27]: 90 | Soybean plant response rating (0 to 100 scale) [1, 28]: 90 | Galium plant response rating (0-100) [2, 27]: 90 | Galium plant response rating (0 to 100 scale) [2, 28]: 90 | Wheat plant response rating (0-100) [3, 27]: 60 | Wheat plant response rating (0 to 100 scale) [3, 28]: 90 | Barnyardgrass plant response rating (0-100) [4, 27]: 90 | Barnyardgrass plant response rating (0 to 100 scale) [4, 28]: 90 | Oat, Wild plant response rating (0-100) [5, 27]: 30 | Oat, Wild plant response rating (0 to 100 scale) [5, 28]: 70 | Ragweed plant response rating (0-100) [6, 27]: 30 | Ragweed plant response rating (0 to 100 scale) [6, 28]: 70 | Ryegrass, Italian plant response rating (0-100) [7, 27]: 90 | Ryegrass, Italian plant response rating (0 to 100 scale) [7, 28]: 90 | Amaranth, Palmer plant response rating (0-100) [8, 27]: 90 | Amaranth, Palmer / Pigweed, Palmer plant response rating (0 to 100 scale) [8, 28]: 100 | Corn plant response rating (0-100) [9, 27]: 100 | Corn plant response rating (0 to 100 scale) [9, 28]: 100 | Kochia plant response rating (0-100) [10, 27]: 80 | Kochia plant response rating (0 to 100 scale) [10, 28]: 90 | Blackgrass plant response rating (0-100) [11, 27]: 90 | Blackgrass plant response rating (0 to 100 scale) [11, 28]: 100 | Horseweed plant response rating (0-100) [12, 27]: 80 | Horseweed plant response rating (0 to 100 scale) [12, 28]: 90 | Plant response rating, Sedge, Umbrella (0 to 100 scale, 0 is no effect and 100 is complete control) [13]: 98 | Plant response rating, Rice (0 to 100 scale, 0 is no effect and 100 is complete control) [14]: 70 | Plant response rating, Barnyardgrass (0 to 100 scale, 0 is no effect and 100 is complete control) [15]: 60 | Plant response rating, Ducksalad (0 to 100 scale, 0 is no effect and 100 is complete control) [16]: 95 | Soybean plant response rating (0-100) ([17]; 31 g ai/ha): 20 | Soybean plant response rating (0 to 100 scale) ([17]; 125 g ai/ha): 50 | Wheat plant response rating (0-100) ([18]; 31 g ai/ha): 20 | Wheat plant response rating (0 to 100 scale) ([18]; 125 g ai/ha): 90 | Barnyardgrass plant response rating (0-100) ([19]; 31 g ai/ha): 80 | Barnyardgrass plant response rating (0 to 100 scale) ([19]; 125 g ai/ha): 90 | Oat, Wild plant response rating (0-100) ([20]; 31 g ai/ha): 10 | Oat, Wild plant response rating (0 to 100 scale) ([20]; 125 g ai/ha): 30 | Ragweed plant response rating (0-100) ([21]; 31 g ai/ha): 0 | Ragweed plant response rating (0 to 100 scale) ([21]; 125 g ai/ha): 30 | Ryegrass, Italian plant response rating (0-100) ([22]; 31 g ai/ha): 60 | Ryegrass, Italian plant response rating (0 to 100 scale) ([22]; 125 g ai/ha): 80 | Amaranth, Palmer plant response rating (0-100) ([23]; 31 g ai/ha): 80 | Amaranth, Palmer plant response rating (0 to 100 scale) ([23]; 125 g ai/ha): 100 | Corn plant response rating (0-100) ([24]; 31 g ai/ha): 10 | Corn plant response rating (0 to 100 scale) ([24]; 125 g ai/ha): 60 | Kochia plant response rating (0-100) ([25]; 31 g ai/ha): 10 | Kochia plant response rating (0 to 100 scale) ([25]; 125 g ai/ha): 70 | Blackgrass plant response rating (0-100) ([26]; 31 g ai/ha): 10 | Blackgrass plant response rating (0 to 100 scale) ([26]; 125 g ai/ha): 30
